Data: the supplement of paper PMC8617591

What was measured:
[1] = system: Mycobacterium tuberculosis Erdman (autoluminescent); assay: total FIC50 (Loewe) at 50% inhibition, three-drug combination (log2); higher = more antagonistic
Experimental: (§1)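 DiaMOND equipotent three-drug combination dose responses (10 doses, 1.5- or 2-fold spacing, centred on IC90) against autoluminescent M. tuberculosis Erdman in 8 in vitro models. Read-out is OD600, or luminescence for the intracellular and dormancy models, normalised to untreated wells. Hill-fit Einf, AUC25 and GRinf are potency metrics; FIC50 and FIC90 are total Loewe fractional inhibitory concentrations as log2 (negative = synergy).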

[2] = system: Mycobacterium tuberculosis Erdman (autoluminescent); assay: AUC25, normalised area under dose response up to IC25 (three-drug combination) (fraction (0-1)); higher = more potent at low dose
Experimental: as §1

[3] = system: Mycobacterium tuberculosis Erdman (autoluminescent); assay: GRinf, maximum normalised growth rate inhibition (three-drug combination) (unitless (-1 to 1)); higher = less effect (negative = killing)
Experimental: as §1

[4] = system: Mycobacterium tuberculosis Erdman (autoluminescent); assay: Einf, fitted maximum growth inhibition of three-drug combination (fraction); higher = stronger maximal inhibition
Experimental: as §1

[5] = system: Mycobacterium tuberculosis Erdman (autoluminescent); assay: total FIC90 (Loewe) at 90% inhibition, three-drug combination (log2); higher = more antagonistic
Experimental: as §1

CC[C@@H](CO)NCCN[C@@H](CC)CO [ethambutol] + CC(=O)NC[C@H]1CN(c2ccc(N3CCOCC3)c(F)c2)C(=O)O1 [linezolid] + NC(=O)c1cnccn1 [pyrazinamide]
Conditions	AUC25, [2]	Einf, [4]	GRinf, [3]	total FIC50, [1]	total FIC90, [5]
in vitro model: acidic pH 5.7, time point: constant (~7 days, model-specific)	0.087	0.835	-0.314	0.0711	–
in vitro model: acidic pH 5.7, time point: terminal (~4-5 doublings, model-specific)	0.0645	0.963	-0.245	1.01	-1.27
in vitro model: intracellular J774, time point: constant = terminal	–	0.966	-0.526	–	0.433

Conditions	AUC25, [2]	Einf, [4]	GRinf, [3]	total FIC50, [1]	total FIC90, [5]
in vitro model: butyrate, time point: constant (~7 days, model-specific)	0.114	0.891	0.0745	0.217	–
in vitro model: butyrate, time point: terminal (~4-5 doublings, model-specific)	0.0865	0.932	0.0716	0.189	0.638
in vitro model: cholesterol 0.05 mM, time point: constant (~7 days, model-specific)	0.16	0.785	-0.0274	–	–
in vitro model: cholesterol 0.05 mM, time point: terminal (~4-5 doublings, model-specific)	0.168	0.977	-0.696	-1.33	–
in vitro model: cholesterol-high 0.2 mM, time point: constant (~7 days, model-specific)	0.101	0.944	-0.667	0.563	–
in vitro model: cholesterol-high 0.2 mM, time point: terminal (~4-5 doublings, model-specific)	0.11	1	-0.959	0.303	0.985
in vitro model: dormancy (butyrate + nitrate, low O2), time point: constant (~7 days, model-specific)	0.107	0.75	0.388	0.819	–
in vitro model: dormancy (butyrate + nitrate, low O2), time point: terminal (~4-5 doublings, model-specific)	0.102	0.964	0.0543	0.154	0.627
in vitro model: standard 7H9 glycerol, time point: constant = terminal	0.071	0.86	0.221	1.2	–
in vitro model: valerate, time point: constant (~7 days, model-specific)	0.0934	0.864	0.000637	0.255	–
in vitro model: valerate, time point: terminal (~4-5 doublings, model-specific)	0.0462	0.909	0.102	0.697	–

CC(=O)NC[C@H]1CN(c2ccc(N3CCOCC3)c(F)c2)C(=O)O1 [linezolid] + CO[C@H]1/C=C/O[C@@]2(C)Oc3c(C)c(O)c4c(O)c(c(/C=N/N5CCN(C6CCCC6)CC5)c(O)c4c3C2=O)NC(=O)/C(C)=C\C=C\[C@H](C)[C@H](O)[C@@H](C)[C@@H](O)[C@@H](C)[C@H](OC(C)=O)[C@@H]1C [rifapentine] + CO[C@H]1/C=C/O[C@@]2(C)Oc3c(C)c(O)c4c(O)c(c(/C=N/N5CCN(C)CC5)c(O)c4c3C2=O)NC(=O)/C(C)=C\C=C\[C@H](C)[C@H](O)[C@@H](C)[C@@H](O)[C@@H](C)[C@H](OC(C)=O)[C@@H]1C [rifampicin]
Conditions	AUC25, [2]	Einf, [4]	GRinf, [3]	total FIC50, [1]	total FIC90, [5]
in vitro model: acidic pH 5.7, time point: constant (~7 days, model-specific)	0.0833	0.893	-0.162	0.407	–
in vitro model: acidic pH 5.7, time point: terminal (~4-5 doublings, model-specific)	0.0709	0.979	-0.204	0.327	0.0907
in vitro model: intracellular J774, time point: constant = terminal	–	0.93	-0.12	–	-0.258

Conditions	AUC25, [2]	Einf, [4]	GRinf, [3]	total FIC50, [1]	total FIC90, [5]
in vitro model: butyrate, time point: constant (~7 days, model-specific)	0.0767	0.869	0.14	0.125	–
in vitro model: butyrate, time point: terminal (~4-5 doublings, model-specific)	0.0594	0.933	0.106	0.0289	-0.462
in vitro model: cholesterol 0.05 mM, time point: constant (~7 days, model-specific)	0.147	0.654	-0.259	0.106	–
in vitro model: cholesterol 0.05 mM, time point: terminal (~4-5 doublings, model-specific)	0.127	0.909	-0.305	-0.0658	0.0643
in vitro model: cholesterol-high 0.2 mM, time point: constant (~7 days, model-specific)	0.104	0.934	-0.348	0.114	0.179
in vitro model: cholesterol-high 0.2 mM, time point: terminal (~4-5 doublings, model-specific)	0.0979	1	-0.881	0.344	0.213
in vitro model: dormancy (butyrate + nitrate, low O2), time point: constant (~7 days, model-specific)	0.0711	0.884	0.158	0.564	0.837
in vitro model: dormancy (butyrate + nitrate, low O2), time point: terminal (~4-5 doublings, model-specific)	0.0539	0.965	-0.00168	-0.00521	0.318
in vitro model: standard 7H9 glycerol, time point: constant = terminal	0.0512	0.879	0.155	0.208	–
in vitro model: valerate, time point: constant (~7 days, model-specific)	0.0508	0.862	0.0506	0.124	–
in vitro model: valerate, time point: terminal (~4-5 doublings, model-specific)	0.029	0.933	0.0203	0.039	-0.378

COc1nc2ccc(Br)cc2cc1[C@@H](c1ccccc1)[C@@](O)(CCN(C)C)c1cccc2ccccc12 [bedaquiline] + CC(=O)NC[C@H]1CN(c2ccc(N3CCOCC3)c(F)c2)C(=O)O1 [linezolid] + NC(=O)c1cnccn1 [pyrazinamide]
Conditions	AUC25, [2]	Einf, [4]	GRinf, [3]	total FIC50, [1]	total FIC90, [5]
in vitro model: acidic pH 5.7, time point: constant (~7 days, model-specific)	0.076	0.806	-0.494	0.125	–
in vitro model: acidic pH 5.7, time point: terminal (~4-5 doublings, model-specific)	0.0793	0.981	-0.392	0.681	0.133
in vitro model: intracellular J774, time point: constant = terminal	–	0.928	-0.132	–	0.532

Conditions	AUC25, [2]	Einf, [4]	GRinf, [3]	total FIC50, [1]	total FIC90, [5]
in vitro model: butyrate, time point: constant (~7 days, model-specific)	0.101	0.947	-0.127	-0.0949	0.0532
in vitro model: butyrate, time point: terminal (~4-5 doublings, model-specific)	0.0821	0.975	-0.116	-0.166	0.0226
in vitro model: cholesterol 0.05 mM, time point: constant (~7 days, model-specific)	0.142	0.767	-0.355	–	–
in vitro model: cholesterol 0.05 mM, time point: terminal (~4-5 doublings, model-specific)	0.141	0.969	-0.491	0.0813	–
in vitro model: cholesterol-high 0.2 mM, time point: constant (~7 days, model-specific)	0.109	0.967	-0.577	0.197	–
in vitro model: cholesterol-high 0.2 mM, time point: terminal (~4-5 doublings, model-specific)	0.105	1	-0.793	0.121	0.311
in vitro model: dormancy (butyrate + nitrate, low O2), time point: constant (~7 days, model-specific)	0.0774	0.92	0.268	-0.772	-0.755
in vitro model: dormancy (butyrate + nitrate, low O2), time point: terminal (~4-5 doublings, model-specific)	0.0469	0.989	-0.0748	-0.0476	-0.67
in vitro model: standard 7H9 glycerol, time point: constant = terminal	0.0828	0.934	-0.00964	0.406	–
in vitro model: valerate, time point: constant (~7 days, model-specific)	0.0833	0.886	-0.102	0.362	–
in vitro model: valerate, time point: terminal (~4-5 doublings, model-specific)	0.0634	0.942	-0.069	0.455	0.406
